Assay results reported in patent US11780826B2 (Amgen Inc., priority 2017, dated 2023).

System: Bovine cardiac myofibrils
Test: In vitro model of dose-dependent myofibril ATPase modulation (AC1.4, pyruvate kinase/lactate dehydrogenase-coupled ATPase assay at pCa25)
Format: biochemical
Details: concentration at which ATPase activity was 1.4-fold higher than the bottom of the dose curve, mean of a minimum of two independent tests
Procedure, shortened: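 Detergent-skinned bovine cardiac myofibrils (typically 0.25-1.0 mg/ml) in Ca-buffered (EGTA/CaCl2) PK/LDH-coupled ATPase assay: 12 mM K-PIPES pH 6.80, 2 mM MgCl2, 1 mM ATP, 1 mM DTT, 0.5 mM NADH, 1.5 mM PEP. Hydrolysis followed at 340 nm; dose response fit to 4-parameter equation; AC1.4 is mean of ≥2 tests.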

| Structure (SMILES) | AC1.4 [µM] |
| --- | --- |
| C[C@@H](NC(=O)[C@H]1[C@@H]2C[C@@H]2CN1C(=O)c1cccc(S(=O)(=O)N(C)C)c1)c1ccc(C(F)(F)F)cc1 [Example 572, (1R,2R,5S)-3-(3-(dimethylsulfamoyl)benzoyl)-N-((1R)-1-(4-(trifluoromethyl)phenyl)ethyl)-3-azabicyclo[3.1.0]hexane-2-carboxamide] | 3.205 |
| O=C(N[C@@H](c1cc(F)c(Cl)cc1F)C1CC1)[C@H]1C[C@H]2C[C@H]2N1C(=O)c1ccnc(C(F)(F)F)c1 [Example 231, (1R,3R,5R)-N-((R)-(4-chloro-2,5-difluorophenyl)(cyclopropyl)methyl)-2-((2-(trifluoromethyl)-4-pyridinyl)carbonyl)-2-azabicyclo[3.1.0]hexane-3-carboxamide] | 0.5188 |
| O=C(N[C@@H](c1ccc(C(F)(F)F)c(F)c1)C1CC1)[C@H]1C[C@H]2C[C@H]2N1C(=O)c1cccc(S(=O)(=O)C2CC2)c1 [Example 310, (1R,3R,5R)—N—((R)-cyclopropyl(3-fluoro-4-(trifluoromethyl)phenyl)methyl)-2-(3-(cyclopropylsulfonyl)benzoyl)-2-azabicyclo[3.1.0]hexane-3-carboxamide] | 0.8061 |
| CN(C)S(=O)(=O)c1cccc(C(=O)N2CCC[C@@H]2C(=O)N[C@H](CO)c2ccc(Cl)c(F)c2)c1 [Example 634, N-((1S)-1-(4-chloro-3-fluorophenyl)-2-hydroxyethyl)-1-(3-(dimethylsulfamoyl)benzoyl)-D-prolinamide] | 4.1045 |
| CCOc1ccc(S(C)(=O)=O)cc1C(=O)N1CCC[C@@H]1C(=O)N[C@@H](c1ccc(C(F)(F)F)cc1F)C1CC1 [Example 554, N-((R)-cyclopropyl(2-fluoro-4-(trifluoromethyl)phenyl)methyl)-1-(2-ethoxy-5-(methylsulfonyl)benzoyl)-D-prolinamide] | 2.688 |
| CS(=O)(=O)c1cccc(C(=O)N2C[C@@H]3C[C@@H]3[C@@H]2C(=O)N[C@@H](c2ccc(C(F)(F)F)cc2F)C2CC2)c1 [Example 484, (1S,2R,5R)-N-((R)-cyclopropyl(2-fluoro-4-(trifluoromethyl)phenyl)methyl)-3-(3-(methylsulfonyl)benzoyl)-3-azabicyclo[3.1.0]hexane-2-carboxamide] | 2.014 |
| CS(=O)(=O)c1cc(C(=O)N2[C@@H](C(=O)N[C@@H](c3ccc(Cl)c(F)c3)C3CC3)C[C@H]3C[C@H]32)ccn1 [Example 795, (1R,3R,5R)-N-((R)-(4-chloro-3-fluorophenyl)(cyclopropyl)methyl)-2-((2-(methylsulfonyl)-4-pyridinyl)carbonyl)-2-azabicyclo[3.1.0]hexane-3-carboxamide] | 9.3255 |
| N#CC1CN(S(=O)(=O)N2CCC[C@H](C(=O)N3CCOC[C@@H]3C(=O)NCc3ccc(C(F)F)cc3)C2)C1 [Example 448, (3R)-4-(((3S)-1-((3-cyano-1-azetidinyl)sulfonyl)-3-piperidinyl)carbonyl)-N-(4-(difluoromethyl)benzyl)-3-morpholinecarboxamide] | 1.844 |
| CC(C)(C)[C@@H](NC(=O)[C@H]1CCCN1C(=O)c1cccc(S(=O)(=O)N2CC(C#N)C2)c1)c1ccc(C(F)(F)F)cc1 [Example 627, 1-(3-((3-cyano-1-azetidinyl)sulfonyl)benzoyl)-N-((1R)-2,2-dimethyl-1-(4-(trifluoromethyl)phenyl)propyl)-D-prolinamide] | 4.037 |
| N#C[C@H]1C[C@H](S(=O)(=O)c2cccc(C(=O)N3CCCC[C@@H]3C(=O)NCc3ccc(Cl)nc3)c2)C1 [Example 420, (2R)-N-((6-chloro-3-pyridinyl)methyl)-1-((3-((trans-3-cyanocyclobutyl)sulfonyl)phenyl)carbonyl)-2-piperidinecarboxamide] | 1.5455 |
| CC(=O)N1CC(F)(c2cccc(C(=O)N3CCC[C@@H]3C(=O)N[C@@H](c3ccc(C(F)(F)F)cc3F)C3CC3)c2)C1 [Example 796, 1-(3-(l-acetyl-3-fluoro-3-azetidinyl)benzoyl)-N-((R)-cyclopropyl(2-fluoro-4-(trifluoromethyl)phenyl)methyl)-D-prolinamide] | 9.426 |
| Cc1ccnc(C(=O)N2[C@@H](C(=O)N[C@@H](c3cc(F)c(C(F)(F)F)cc3F)C3CC3)C[C@H]3C[C@H]32)c1 [Example 658, (1R,3R,5R)-N-((R)-cyclopropyl(2,5-difluoro-4-(trifluoromethyl)phenyl)methyl)-2-((4-methyl-2-pyridinyl)carbonyl)-2-azabicyclo[3.1.0]hexane-3-carboxamide] | 4.159 |
| Cc1cncc(C(=O)N2[C@@H](C(=O)N[C@@H](c3cc(F)c(C(F)(F)F)cc3F)C3CC3)C[C@H]3C[C@H]32)c1 [Example 797, (1R,3R,5R)-N-((R)-cyclopropyl(2,5-difluoro-4-(trifluoromethyl)phenyl)methyl)-2-((5-methyl-3-pyridinyl)carbonyl)-2-azabicyclo[3.1.0]hexane-3-carboxamide] | 9.447 |
| CCNc1ccc(C)cc1C(=O)N1CCC[C@@H]1C(=O)N[C@@H](c1ccc(C(F)(F)F)cc1F)C1CC1 [Example 108, N-((R)-cyclopropyl(2-fluoro-4-(trifluoromethyl)phenyl)methyl)-1-(2-(ethylamino)-5-methylbenzoyl)-D-prolinamide] | 0.1689 |
| COc1cc(F)c([C@H](NC(=O)[C@H]2C[C@H]3C[C@H]3N2C(=O)c2cccc(S(C)(=O)=O)c2)C2CC2)cc1F [Example 747, (1R,3R,5R)-N-((R)-cyclopropyl(2,5-difluoro-4-methoxyphenyl)methyl)-2-(3-(methylsulfonyl)benzoyl)-2-azabicyclo[3.1.0]hexane-3-carboxamide] | 7.287 |

The next lines start with the values.

| AC1.4 [µM] | Structure (SMILES) |
| --- | --- |
| 0.632 | Cc1ccc(CNC(=O)[C@H]2CCCN2C(=O)[C@H]2CCCN(S(=O)(=O)N3CC(C#N)C3)C2)c(C)c1 [Example 256, 1-(((3S)-1-((3-cyano-1-azetidinyl)sulfonyl)-3-piperidinyl)carbonyl)-N-(2,4-dimethylbenzyl)-D-prolinamide] |
| 7.156 | CC(C)(C)[C@@H](NC(=O)[C@H]1CCCN1C(=O)[C@H]1CCCN(S(=O)(=O)N2CC(C#N)C2)C1)c1ccc(C(F)(F)F)cc1 [Example 740, 1-(((3S)-1-((3-cyano-1-azetidinyl)sulfonyl)-3-piperidinyl)carbonyl)-N-((1R)-2,2-dimethyl-1-(4-(trifluoromethyl)phenyl)propyl)-D-prolinamide] |
| 0.2727 | CC1(C#N)CN(S(=O)(=O)N2CCC[C@H](C(=O)N3CCC[C@@H]3C(=O)NCc3ccc(C(F)(F)F)cc3)C2)C1 [Example 156, 1-(((3S)-1-((3-cyano-3-methyl-1-azetidinyl)sulfonyl)-3-piperidinyl)carbonyl)-N-(4-(trifluoromethyl)benzyl)-D-prolinamide] |
| 0.9742 | O=C(NCc1ccc(C(F)(F)F)cc1)[C@H]1CCCN1C(=O)[C@H]1CCCN(S(=O)(=O)N2CC(OC(F)F)C2)C1 [Example 343, 1-(((3S)-1-((3-(difluoromethoxy)-1-azetidinyl)sulfonyl)-3-piperidinyl)carbonyl)-N-(4-(trifluoromethyl)benzyl)-D-prolinamide] |
| 1.831 | N#CC1CN(S(=O)(=O)N2CCC[C@H](C(=O)N3CCC[C@@H]3C(=O)NCc3ccc(C4CC4)cc3)C2)C1 [Example 447, 1-(((3S)-1-((3-cyano-1-azetidinyl)sulfonyl)-3-piperidinyl)carbonyl)-N-(4-cyclopropylbenzyl)-D-prolinamide] |
| 8.21 | O=C(NCc1ccc(C(F)(F)F)cc1)[C@H]1CCCN1C(=O)[C@H]1CCCN(S(=O)(=O)N2CCC(F)(F)C2)C1 [Example 773, 1-(((3S)-1-((3,3-difluoro-1-pyrrolidinyl)sulfonyl)-3-piperidinyl)carbonyl)-N-(4-(trifluoromethyl)benzyl)-D-prolinamide] |
| 1.1962 | O=C(NCc1ccc(C(F)(F)F)cc1)[C@H]1CCCN1C(=O)[C@H]1CCCN(S(=O)(=O)N2CC(n3cccc3)C2)C1 [Example 367, 1-(((3S)-1-((3-(1H-pyrrol-1-yl)-1-azetidinyl)sulfonyl)-3-piperidinyl)carbonyl)-N-(4-(trifluoromethyl)benzyl)-D-prolinamide] |
| 0.3113 | N#CC1CN(S(=O)(=O)N2CCC[C@H](C(=O)N3C[C@@H]4C[C@@H]4[C@@H]3C(=O)NCc3ccc(C(F)(F)F)cc3)C2)C1 [Example 177, (1S,2R,5R)-3-(((3S)-1-((3-cyano-1-azetidinyl)sulfonyl)-3-piperidinyl)carbonyl)-N-(4-(trifluoromethyl)benzyl)-3-azabicyclo[3.1.0]hexane-2-carboxamide] |
| 4.8355 | COc1ccc(CNC(=O)[C@H]2CCCN2C(=O)[C@H]2CCCN(S(=O)(=O)N3CC(C#N)C3)C2)cc1C [Example 672, 1-(((3S)-1-((3-cyano-1-azetidinyl)sulfonyl)-3-piperidinyl)carbonyl)-N-(4-methoxy-3-methylbenzyl)-D-prolinamide] |
| 1.8545 | O=C(NCc1ccc(C(F)(F)F)cc1)[C@H]1CCCN1C(=O)[C@H]1CCCN(S(=O)(=O)N2CC(F)(C3CC3)C2)C1 [Example 450, 1-(((3S)-1-((3-cyclopropyl-3-fluoro-1-azetidinyl)sulfonyl)-3-piperidinyl)carbonyl)-N-(4-(trifluoromethyl)benzyl)-D-prolinamide] |
| 0.1023 | N#CC1CN(S(=O)(=O)N2CCC[C@H](C(=O)N3CCC[C@@H]3C(=O)N[C@H](CO)c3ccc(Cl)c(F)c3)C2)C1 [Example 78, N-((1S)-1-(4-chloro-3-fluorophenyl)-2-hydroxyethyl)-1-(((3S)-1-((3-cyano-1-azetidinyl)sulfonyl)-3-piperidinyl)carbonyl)-D-prolinamide] |
| 0.07198 | N#CC1CN(S(=O)(=O)N2CCC[C@H](C(=O)N3CCC[C@@H]3C(=O)NCc3ccc(C(F)(F)F)cc3F)C2)C1 [Example 62, 1-(((3S)-1-((3-cyano-1-azetidinyl)sulfonyl)-3-piperidinyl)carbonyl)-N-(2-fluoro-4-(trifluoromethyl)benzyl)-D-prolinamide] |
